What all share (assay type): cell-based
For experiment [1], the target named is T1, GLP-1R (Homo sapiens, UniProt P43220). As to the kind of experiment: PathHunter β-arrestin assay. In outline: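 Recruitment of β-arrestin is measured by luminescence after cells, plated overnight, receive serially diluted agonist for 90 min at 37 °C in medium with 0.2% BSA. Detection reagent then develops for 3 h at room temperature, protected from light.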

The target in experiment [2] is T1, GLP-1R. The experiment can be described thus: HitHunter cAMP assay (GLP-1R). The following applies: cAMP; for EC50: EC50 GLP-1R/nM; for Emax: read-out: (Emax) GLP-1R. In outline: (§1)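 Agonist stimulation lasts 30 min at room temperature on 10,000 cells per well, with phosphodiesterase blocked by 625 μM IBMX. Accumulated cAMP is quantified by competitive antibody luminescence after overnight development.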

Another experiment addresses T2, GIP-R (Homo sapiens, UniProt P48546).
T2 sequence (P48546 22-466): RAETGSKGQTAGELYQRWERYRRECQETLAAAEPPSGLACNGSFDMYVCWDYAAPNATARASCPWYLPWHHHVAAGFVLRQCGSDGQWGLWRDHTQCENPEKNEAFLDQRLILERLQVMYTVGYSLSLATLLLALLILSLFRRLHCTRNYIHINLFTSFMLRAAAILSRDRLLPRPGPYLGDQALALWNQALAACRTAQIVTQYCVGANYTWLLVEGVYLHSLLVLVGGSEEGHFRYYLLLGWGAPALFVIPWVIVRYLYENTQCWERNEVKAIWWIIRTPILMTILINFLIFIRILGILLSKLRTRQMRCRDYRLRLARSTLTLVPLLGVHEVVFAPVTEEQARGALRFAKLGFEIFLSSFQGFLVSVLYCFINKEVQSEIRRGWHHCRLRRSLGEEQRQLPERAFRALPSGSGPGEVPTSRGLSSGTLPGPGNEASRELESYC
The experiment can be described thus: HitHunter cAMP assay (GIP-R). The following applies: cAMP; for Emax: read-out: (Emax) GIP-R. In outline: as §1
A general note: Cyclic AMP is a second messenger, typically raised through Gs and lowered through Gi signalling.

The structures appear in SMILES notation. Read-outs that look alike come from different tables or passages of the source.

T1 sequence (P43220 24-463): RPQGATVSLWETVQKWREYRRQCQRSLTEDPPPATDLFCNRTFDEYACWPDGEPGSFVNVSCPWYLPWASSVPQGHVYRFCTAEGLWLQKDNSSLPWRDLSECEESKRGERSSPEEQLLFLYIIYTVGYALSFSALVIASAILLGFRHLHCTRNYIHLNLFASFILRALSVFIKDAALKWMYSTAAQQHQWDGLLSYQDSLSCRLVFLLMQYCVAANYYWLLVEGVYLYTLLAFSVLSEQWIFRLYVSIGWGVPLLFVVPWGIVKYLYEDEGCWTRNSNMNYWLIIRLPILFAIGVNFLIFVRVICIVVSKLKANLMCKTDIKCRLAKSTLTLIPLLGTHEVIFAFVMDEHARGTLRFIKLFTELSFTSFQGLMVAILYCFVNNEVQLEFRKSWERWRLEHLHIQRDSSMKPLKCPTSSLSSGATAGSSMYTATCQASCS

With `CCCCCCCCCCCCCCCC(=O)N[C@@H](CCC(=O)NCCCC[C@H](NC(=O)[C@H](CO)NC(=O)[C@@H]1CCCN1C(=O)[C@@H]1CCCN1C(=O)[C@@H]1CCCN1C(=O)[C@H](C)NC(=O)CNC(=O)[C@H](CO)NC(=O)[C@H](CO)NC(=O)[C@@H]1CCCN1C(=O)CNC(=O)CNC(=O)[C@H](C)NC(=O)[C@H](CC(C)C)NC(=O)[C@H](CC(C)C)NC(=O)[C@H](Cc1c[nH]c2ccccc12)NC(=O)[C@H](CC(N)=O)NC(=O)[C@@H](NC(=O)[C@H](Cc1ccccc1)NC(=O)[C@H](CCC(=O)O)NC(=O)C(C)(C)NC(=O)[C@H](C)NC(=O)[C@H](C)NC(=O)[C@H](CCC(N)=O)NC(=O)[C@H](CCCCN)NC(=O)[C@H](CC(=O)O)NC(=O)[C@H](CC(C)C)NC(=O)[C@H](Cc1ccc(O)cc1)NC(=O)[C@@H](NC(=O)[C@H](CO)NC(=O)[C@H](Cc1ccc(O)cc1)NC(=O)[C@H](CC(=O)O)NC(=O)[C@H](CO)NC(=O)[C@@H](NC(=O)[C@H](Cc1ccccc1)NC(=O)[C@@H](NC(=O)CNC(=O)[C@H](CCC(=O)O)NC(=O)CSCC(=O)NCCN1CCN(C)C(=O)C1=O)[C@@H](C)O)[C@@H](C)O)[C@@H](C)CC)C(C)C)C(N)=O)C(=O)O` [Compound 30], the EC50 is greater than 1000 nM on GLP-1R [1]; 0.1 to 1 nM at GLP-1R [2] (Table 3); 0.1 to 1 nM at GLP-1R [2] (Table 3A); 1 to 10 nM on GIP-R (EC50 GIP-R/nM, Table 3); 1 to 10 nM on GIP-R (EC50 GIP-R/nM, Table 3A). Besides, the Emax (usually the maximal effect, on the per cent scale that the assay sets) on GLP-1R [2] (Table 3) stood at 97%; on GLP-1R [2] (Table 3A) it was 97%; at GIP-R (Table 3) it was 59%; on GIP-R (Table 3A), 59%.

Take `CC[C@H](C)[C@H](NC(=O)[C@H](CO)NC(=O)[C@H](Cc1ccc(O)cc1)NC(=O)[C@H](CC(=O)O)NC(=O)[C@H](CO)NC(=O)[C@@H](NC(=O)[C@H](Cc1ccccc1)NC(=O)[C@@H](NC(=O)CNC(=O)[C@H](CCC(=O)O)NC(=O)CSCC(=O)NCCN1C(=O)c2cccc(Cl)c2C1=O)[C@@H](C)O)[C@@H](C)O)C(=O)N[C@@H](Cc1ccc(O)cc1)C(=O)N[C@@H](CC(C)C)C(=O)N[C@@H](CC(=O)O)C(=O)N[C@@H](CCCCN)C(=O)N[C@@H](CCC(N)=O)C(=O)N[C@@H](C)C(=O)N[C@@H](C)C(=O)NC(C)(C)C(=O)N[C@@H](CCC(=O)O)C(=O)N[C@@H](Cc1ccccc1)C(=O)N[C@H](C(=O)N[C@@H](CC(N)=O)C(=O)N[C@@H](Cc1c[nH]c2ccccc12)C(=O)N[C@@H](CC(C)C)C(=O)N[C@@H](CC(C)C)C(=O)N[C@@H](C)C(=O)NCC(=O)NCC(=O)N1CCC[C@H]1C(=O)N[C@@H](CO)C(=O)N[C@@H](CO)C(=O)NCC(=O)N[C@@H](C)C(=O)N1CCC[C@H]1C(=O)N1CCC[C@H]1C(=O)N1CCC[C@H]1C(=O)N[C@@H](CO)C(=O)N[C@@H](CCCCN)C(N)=O)C(C)C` [Compound 162]: the EC50 on GLP-1R [1] is greater than 1000 nM; at GLP-1R [2] (Table 3), 10 to 100 nM; on GLP-1R [2] (Table 3A), 10 to 100 nM; on GIP-R (read-out: EC50 GIP-R/nM, Table 3), 0.1 to 10 nM; on GIP-R (read-out: EC50 GIP-R/nM, Table 3A), 0.1 to 10 nM. Moreover, the maximal effect (Emax) at GLP-1R [2] (Table 3) fell in the range of 42 to 46%; at GLP-1R [2] (Table 3A), 42 to 46%; on GIP-R (Table 3), 103 to 107%; on GIP-R (Table 3A) it was 103 to 107%.

For the origin of these results see patent US20260176320A1, “MODULATORS OF G-PROTEIN COUPLED RECEPTORS” (priority 2018, published 2026).
